Assay results published in patent US20250122190A1, “HALOGEN-SUBSTITUTED PYRIDAZINONE COMPOUND AND APPLICATION THEREOF” (MEDSHINE DISCOVERY INC., priority 2021, published 2025).

Target: T1, hTRPC5-T478C (Homo sapiens, UniProt Q9UL62)
T1 sequence (Q9UL62 1-973): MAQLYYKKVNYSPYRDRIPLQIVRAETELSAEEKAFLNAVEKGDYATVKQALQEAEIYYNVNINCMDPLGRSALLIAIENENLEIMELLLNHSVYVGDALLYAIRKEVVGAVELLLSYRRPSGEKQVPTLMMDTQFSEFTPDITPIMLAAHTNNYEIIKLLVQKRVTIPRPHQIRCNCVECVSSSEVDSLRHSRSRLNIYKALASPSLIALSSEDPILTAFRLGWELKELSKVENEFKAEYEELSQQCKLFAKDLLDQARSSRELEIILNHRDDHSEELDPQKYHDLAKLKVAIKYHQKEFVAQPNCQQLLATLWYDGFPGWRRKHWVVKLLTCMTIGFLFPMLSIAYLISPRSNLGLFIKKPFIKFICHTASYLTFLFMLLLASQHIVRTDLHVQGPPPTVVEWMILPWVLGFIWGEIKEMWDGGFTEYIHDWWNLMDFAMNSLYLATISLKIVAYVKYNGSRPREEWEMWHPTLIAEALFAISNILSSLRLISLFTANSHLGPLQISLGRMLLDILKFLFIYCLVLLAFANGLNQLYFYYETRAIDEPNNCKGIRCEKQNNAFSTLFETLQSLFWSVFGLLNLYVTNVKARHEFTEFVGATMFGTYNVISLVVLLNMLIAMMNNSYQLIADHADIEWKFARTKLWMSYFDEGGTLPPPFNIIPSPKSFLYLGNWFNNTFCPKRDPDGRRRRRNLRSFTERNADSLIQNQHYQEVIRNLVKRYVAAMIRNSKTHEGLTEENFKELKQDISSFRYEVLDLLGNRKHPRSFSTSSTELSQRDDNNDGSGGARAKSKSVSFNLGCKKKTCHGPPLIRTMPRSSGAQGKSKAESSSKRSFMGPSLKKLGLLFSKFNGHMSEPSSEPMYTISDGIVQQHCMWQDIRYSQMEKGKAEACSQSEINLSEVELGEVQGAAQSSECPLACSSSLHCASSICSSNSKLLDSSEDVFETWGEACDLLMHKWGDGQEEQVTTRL
Test: hTRPC5-T478C patch clamp IC50 assay
Assay type: cell-based
Conditions: hTRPC5-T478C-HEK cells, whole-cell patch clamp, Englerin A agonist
Method: Cell culture: hTRPC5-T478C-HEK cells were cultured in a humid environment in 5% CO2 at 37° C.
Cell culture medium ingredients: • DMEM, Supplier: Gibco, Catalog No. 11965-092; • FBS, Supplier: Gibco, Catalog No. 10099-141C, Concentration: 10%; • Pen/Strep, Supplier: Invitrogen, Catalog No. 15140-122, Concentration: 1%; • Zeocin, Supplier: Invitrogen, Catalog No. R25005, Concentration: 200 μg/mL; • Blasticidin S, Supplier: Invitrogen, Catalog No. R21001, Concentration: 5 μg/mL.
In general, the TRPC5-T478C cell line was passaged three times weekly. The dilution factor for each passage was 1:3. Once the cells reached about 80% confluence in the T-75 flask, the cell line was digested with trypsin for about 1 minute and the cell suspension was removed from the flask with a pipette. Depending on the dilution ratio, the removed cell suspension would be transferred to another T-75 flask containing cell culture medium. Note that in order to maintain the logarithmic growth of the cells, the confluence of the cells should be maintained at the subconfluent stage and the cells should be passaged once every 2 to 3 days depending on the proliferation rate of the cell line.
(1) Extracellular fluid: sodium chloride (145 mmol/L), potassium chloride (4 mmol/L), magnesium chloride (1.5 mmol/L), glucose (10 mmol/L), hydroxyethyl piperazineethanesulfonic acid (HEPES, 10 mmol/L). The extracellular fluid was adjusted to pH 7.4 with NaOH, and the osmotic pressure was adjusted to about 305 mOsm/L with pure water or sucrose.
(2) Intracellular fluid: cesium chloride (140 mmol/L), ethylene glycol diethyl ether diamine tetraacetic acid (EGTA, 1 mmol/L), magnesium chloride (2 mmol/L), glucose (10 mmol/L), hydroxyethyl piperazineethanesulfonic acid (HEPES, 10 mmol/L). The intracellular fluid was adjusted to pH 7.2 with […], and the osmotic pressure was adjusted to about 295 mOsm/L with pure water or sucrose.
(3) The extracellular fluid was required to be formulated once a week, and the intracellular fluid was required to be subpackaged and stored at −20° C. after formulation.
Positive reference compounds Englerin A and 2-aminoethoxydiphenyl borate (2-APB) were dissolved in 100% DMSO and stored as a 10 mM working solution after formulation. The test compounds were dissolved in 100% DMSO and stored as a 10 mM working solution after formulation. The final concentration of DMSO in the test solution should be less than 0.3%.
Whole-cell patch clamping was performed at room temperature. The electrical signals recorded using an EPC 10 USB amplifier (HEKA Elektronik, Germany) were low-pass filtered at 3 kHz and finally recorded in PatchMaster 2×90.5 software (HEKA Elektronik, Germany). In this step, the quality control standards were that the cell high-resistance seal was formed at a value greater than 500 MOhms and the detection current was greater than 0.3 nA.
The recording electrode was a borosilicate glass capillary (GC150tF-10, Harvard Apparatus Co., UK), which was pulled by a vertical puller (NARISHIGE PC-10, Japan) and polished. In this step, the quality control standard was that the electrode resistance was between 2 to 5 MΩ.
During whole-cell patch clamp recordings, a continuous filling system (BT100-2J, LongerPump, China) was used to continuously perfuse extracellular fluid. The filling system was mounted on the stage of an upright microscope (FN—S2N, Nikon, Japan), and the filling tip was manually positioned under the microscope.
The voltage instructions for hTRPC5-T478C current amplitude detection were as follows: the cells were clamped as follows: the clamping potential changed in a stepped manner from −40 mV to −80 mV (duration: 50 ms); then the clamping voltage ramped up to +80 mV, and the whole process lasted for 200 ms; then clamping was performed at +80 mV for 50 ms, and finally, the voltage returned to the clamping potential of −40 mV. […]

Row | SMILES | IC50
1 | O=c1[nH]ncc(N2CCc3c(ncnc3Sc3ccc(F)cc3C(F)(F)F)C2)c1Cl [Compound WX002] | 115 nM
2 | O=c1[nH]ncc(N2CCc3c(ncnc3Oc3ccc(F)cc3Br)C2)c1Cl [Compound WX004] | 91.4 nM
3 | O=c1[nH]ncc(N2CCc3c(ncnc3Oc3ccc(F)cc3C(F)(F)F)C2)c1Br [Compound WX009] | 304 nM
4 | CC(F)(F)c1cc(F)ccc1Oc1ncnc2c1CCN(c1cn[nH]c(=O)c1Cl)C2 [Compound WX010] | 196 nM
5 | COCc1nc2c(c(Oc3ccc(F)cc3C(F)(F)F)n1)CCN(c1cn[nH]c(=O)c1Cl)C2 [Compound WX011] | 191 nM
6 | O=c1[nH]ncc(N2CCc3c(nc(CO)nc3Sc3ccc(F)cc3C(F)(F)F)C2)c1Cl [Compound WX012] | 16.6 nM
7 | Nc1nc2c(c(Sc3ccc(F)cc3C(F)(F)F)n1)CCN(c1cn[nH]c(=O)c1Cl)C2 [Compound WX013] | 15.3 nM
